Experiments:
[1] = Safety pharmacology: effects on the central nervous system in rats; type: in vivo; conditions: single oral 100, 300 and 600 mg/kg
Procedure: Effects on the Respiratory System in Rats (Study no. YL18404). Four groups of eight male rats were given a single oral administration of STP0404 at doses of 100, 300 and 600 mg/kg. STP0404 was administered as a suspension in 0.5% MC in a volume of 10 mL/kg. […] Measurements were conducted at pre-dosing and 0.5, 1, 3, 6 12 and 24 hrs post-dosing, and respiratory rate, tidal volume and minute volume were investigated (INA Research, Japan). Effects on the Central Nervous System in Rats (Study no. YL18405). Four groups of six male rats were given a single oral administration of STP0404 at doses of 0 (vehicle), 100, 300 and 600 mg/kg. The test article was administered as a suspension in 0.5% MC in a volume of 10 mL/kg. […] Blinded observations were conducted pre-dosing and 0.5, 1, 3, 6, 12 and 24 hrs post-dosing on rats body temperature, pupil size, landing foot-splay and grip strength in functional observational battery. Effects on the Cardiovascular System in Dogs (Study no. YL18406). STP0404 at dose levels of 30, 60 and 90 mg/kg were administered orally (by capsules) to four male Beagle dogs in a design with 7-day intervals between doses. Heart rate, blood pressure (systolic, diastolic and mean) and electrocardiographic (ECG) parameters (PR, QT and QTc intervals and QRS duration) were evaluated at pre-dosing and 0.5, 1, 2, 4, 8 and 24 hrs post-dosing. […]

[2] = Plasma protein binding (equilibrium dialysis); type: in vitro ADME; conditions: Sprague-Dawley (rat), beagle (dog), cynomolgus monkey, pH 7.4, monkey and human plasma, read-out: In vitro protein binding
Procedure: The current study utilized the 96-well equilibrium dialysis device purchased from HTDialysis to dialyze the test compound and the control compound at 2 μM in plasma at 37±1°C for 4 hrs. Plasma prepared from Sprague-Dawley rats, beagle dog, cynomolgus monkey and humans were previously frozen at below -60°C. The dialysis membrane strips were soaked in ultra-pure water at room temperature for approximately 1 hr. After that, each membrane strip that contains 2 membranes was separated and soaked in ethanol:water (20,80 v,v) for approximately 20 mins, after which it was ready for use or was stored in the solution at 2–8°C for up to a month. Prior to the experiment, the membrane was rinsed and soaked for 20 mins in ultra-pure water. On the day of experiment, the plasma from Sprague-Dawley rats, beagle dogs, cynomolgus monkey and humans was thawed under running cold tap water and centrifuged at 3220×g for 5 mins to remove any clots and the pH value of the resulting plasma will be checked. if required, adjusted to 7.4 ± 0.1. All samples were further processed by protein precipitation for LC/MS/MS analysis (Wuxi AppTec, China).

[3] = tested on: HIV-1 GFP vector in pre-treated Jurkat cells; assay: HIV-1 inhibition in infecting cells (early stage); type: cell-based; conditions: 60 nM in Jurkat cells; vector from untreated 293T cells
Procedure: To test for STP0404’s inhibitory effects during the late stage of HIV-1 life cycle such as the maturation step, we employed the “producing cells” setup. In T75 tissue culture flasks, 293T cells were pre-treated with and without STP0404 (0 and 60 nM) for 2 hrs prior to transfection with pD3-HIV (13 μg) and pVSV-g (6 μg), using 0.3 mg/ml polyethylenimine. After 24 hrs incubation at 37°C, the supernatant was removed and replaced with fresh media with and without STP0404 (0 and 60 nM). 48 hrs later, D3-HIV vector from each treatment group was concentrated from the collected supernatant via ultracentrifugation (22,000 rpm for 2 hrs). Following p24 quantification, using 96-well plates, similar amount of respective D3-HIV vector was used to transduce Jurkat cells in triplicates for 48 hrs. The cells were harvested and fixed with 3.7% formaldehyde before being analyzed for GFP expression using FACS (Miltenyi Biotec, VYB). Separately, the “infecting cells” setup was used to investigate the inhibitory effects of STP0404 against the early stages of HIV-1 life cycle such as the integration and transcription steps. […] All data were analyzed using GraphPad Prism (Version 9). Unpaired t tests were performed to determine the significance of the readings in respective experimental set up relative to the untreated controls. […]

CHL/IU cells = assay: Chromosomal aberration test in cultured mammalian cells (GLP); type: cell-based; conditions: 25~140 μg/mL
Procedure: (§1) Bacterial reverse mutation assay (Study no. YL18407). The bacterial reverse mutation assay of STP0404 was performed in two conditions (with or without metabolic activation) for the dose range-finding test (doses of STP0404rangingfrom 2.29 to 5,000μg/plate) and the main test (doses of STP0404 ranging from 19.5 to 5,000 μg/plate) in comparison with negative control (DMSO) and active controls (sodium azide, 2-(2-furyl)-3-(5-nitro-2-furyl) acrylamide, 2-aminoanthracene, 9-aminoacridine hydrochloride). Salmonella typhimurium (TA100, TA1535) and Escherichia coli (WP2uvrA) were used for detection of base-pair substitutions. Salmonella typhimurium (TA98, TA1537) was used for detection of frameshift mutations. Chromosomal Aberration Test of STP0404 in Cultured Mammalian Cells (Study no. YL18408). Presence/absence of genotoxicity of STP0404 was determined using chromosomal aberration test carried out in CHL/IU cells. The test comprised a dose range-finding test and a main test. Micronucleus Study of STP0404 by oral administration in Rats (Study no. YL18409). STP0404 was administered orally to SD rats (3/group in preliminary test and 6/group in the main test) at dose levels of 500, 1000 and 2000 mg/kg/day once daily for 2 days in a two-test study (preliminary test and main test) to investigate the genotoxicity profile of STP0404. […] Bone marrow smear slides were evaluated (INA Research, Japan).

HIV-1 NL4-3 = assay: In vitro anti-viral assay in MT4 cells; type: cell-based
[4] = tested on: Salmonella typhimurium (TA100, TA1535, TA98, TA1537) and Escherichia coli (WP2uvrA); assay: Bacterial reverse mutation assay (GLP); conditions: five bacterial strains
Procedure: as §1

Cc1nc2c(c(C)c(C)n2Cc2cnn(C)c2)c(-c2ccc(Cl)cc2)c1[C@H](OC(C)(C)C)C(=O)O [STP0404]
safety pharmacology concerns, central nervous system [1]: did not induce any safety pharmacology concerns | fraction unbound at 4 h, 2 μM [2]: 0.003 to 0.061 | transduction efficiency, infecting cells [3]: no reduction in transduction efficiency | chromosomal aberration-inducing potential (CHL/IU cells): lacked | TI (TC50 / IC50) (HIV-1 NL4-3; HIV-1 NL4-3 / MT4 cells): > 6,020 | IC50 (HIV-1 NL4-3; Human immunodeficiency virus 1, NL43, MT4): 1.66 ± 0.32 nM | gene mutation-inducing potential [4]: lacked

— article PMC8297771 (PLoS Pathogens, 2021)
